Our source for the EC50 and Emax values is patent publication US9315498B2, “Arlethynyl derivatives” (Hoffmann-La Roche Inc., priority 2010, dated 2016).

In the test the target is human mGlu5a receptor (Homo sapiens (Human), UniProt P41594). As to the kind of experiment: Intracellular Ca2+ mobilization assay (mGlu5 PAM). As to conditions: for EC50: HEK-293 cells stably transfected with human mGlu5a, L-glutamate added at EC20 after pre-incubation with test compound, read-out: EC50 (nM) mGlu5PAM; for Emax: maximal response in % of the maximal stimulatory effect obtained with saturating concentrations of L-glutamate, read-out: Eff. (%). Format: cell-based. The procedure, abridged: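 HEK-293 cells stably expressing human mGlu5a at low level were loaded with Fluo-4AM and preincubated 10–30 min at 37 °C with 11-point half-log compound dilutions. L-glutamate was then added at its daily-determined EC20 (typically around 80 μM). Peak fluorescence minus basal, normalized to maximal glutamate effect, was fitted to give EC50, Hill slope and maximal response.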
Chain of human mGlu5a receptor (P41594 other isoform, or with tags, fused parts or gaps): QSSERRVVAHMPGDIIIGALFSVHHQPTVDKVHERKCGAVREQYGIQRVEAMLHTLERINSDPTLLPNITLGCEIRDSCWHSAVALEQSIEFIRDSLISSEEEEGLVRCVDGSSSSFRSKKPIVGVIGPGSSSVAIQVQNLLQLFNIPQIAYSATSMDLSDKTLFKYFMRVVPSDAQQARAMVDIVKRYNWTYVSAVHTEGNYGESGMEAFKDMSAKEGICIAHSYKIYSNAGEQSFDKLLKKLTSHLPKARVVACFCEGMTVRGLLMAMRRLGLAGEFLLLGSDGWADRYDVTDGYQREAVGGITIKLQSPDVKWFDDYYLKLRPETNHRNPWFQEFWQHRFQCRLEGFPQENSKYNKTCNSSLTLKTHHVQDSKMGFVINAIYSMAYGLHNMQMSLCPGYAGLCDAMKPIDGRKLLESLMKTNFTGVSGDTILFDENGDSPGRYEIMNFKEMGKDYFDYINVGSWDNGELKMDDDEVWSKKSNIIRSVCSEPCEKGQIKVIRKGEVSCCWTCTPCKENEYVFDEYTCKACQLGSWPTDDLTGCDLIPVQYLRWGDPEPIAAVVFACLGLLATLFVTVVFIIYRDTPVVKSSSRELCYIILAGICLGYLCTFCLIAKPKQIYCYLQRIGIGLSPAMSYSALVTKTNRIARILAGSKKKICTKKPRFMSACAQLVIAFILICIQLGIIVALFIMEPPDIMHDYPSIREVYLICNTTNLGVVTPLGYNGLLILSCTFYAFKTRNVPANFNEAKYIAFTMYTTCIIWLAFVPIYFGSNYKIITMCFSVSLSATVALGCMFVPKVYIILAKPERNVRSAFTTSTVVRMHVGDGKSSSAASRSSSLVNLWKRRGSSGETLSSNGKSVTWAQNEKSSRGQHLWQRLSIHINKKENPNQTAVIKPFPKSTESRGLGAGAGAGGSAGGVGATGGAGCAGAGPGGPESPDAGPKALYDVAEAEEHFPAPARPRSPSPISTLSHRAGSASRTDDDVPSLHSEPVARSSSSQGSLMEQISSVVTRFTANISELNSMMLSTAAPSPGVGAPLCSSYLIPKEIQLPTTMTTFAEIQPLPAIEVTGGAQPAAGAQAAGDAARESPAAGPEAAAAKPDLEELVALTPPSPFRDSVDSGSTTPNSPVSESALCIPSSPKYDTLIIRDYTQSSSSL

For the compound `CN1C(=O)N(c2ccc(C#Cc3cccnc3)cn2)CC1(C)C` [Example 48, 3,4,4-Trimethyl-1-(5-pyridin-3-ylethynyl-pyridin-2-yl)-imidazolidin-2-one], the EC50 is 14 nM and the Emax stood at 89%.
On the same counts, the results for `CC(C)N1C(=O)N(c2ncc(C#Cc3ccc(F)cc3)cn2)CC1(C)C` [Example 142, 1-[5-(4-Fluoro-phenylethynyl)-pyrimidin-2-yl]-3-isopropyl-4,4-dimethyl-imidazolidin-2-one] are 78 nM and 74%.
For `CC1(C)CN(c2ccc(C#Cc3cncnc3)cn2)C(=O)O1` [Example 30, 5,5-Dimethyl-3-(5-pyrimidin-5-ylethynyl-pyridin-2-yl)-oxazolidin-2-one], the concentration for a half-maximal effect (EC50) worked out at 80 nM and the Emax was determined as 43%.
Take `O=C1CS(=O)(=O)CCN1c1ccc(C#Cc2ccccc2)cn1` [Example 173, 1,1-Dioxo-4-(5-phenylethynyl-pyridin-2-yl)-thiomorpholin-3-one]: the EC50 amounted to 29 nM and the Emax was determined as 82%.
Turning to `CC1(C)CC(=O)N(c2ccc(C#Cc3cncc(Cl)c3)cn2)C1` [Example 39, 1-[5-(5-Chloro-pyridin-3-ylethynyl)-pyridin-2-yl]-4,4-dimethyl-pyrrolidin-2-one], the EC50 was determined as 48 nM and the Emax turned out to be 98%.
With `O=C1[C@H]2CCC[C@H]2N1c1ccc(C#Cc2ccccc2)cn1` (racemic) [Example 46, (1RS,5SR)-6-(5-Phenylethynyl-pyridin-2-yl)-6-aza-bicyclo[3.2.0]heptan-7-one], the EC50 was determined as 26 nM and the Emax worked out at 27%.
On the same counts, the results for `CN1C(=O)N(c2cnc(C#Cc3ccc(F)cc3)cn2)CC1(C)C` [Example 159, 1-(5-((4-Fluorophenyl)ethynyl)pyrazin-2-yl)-3,4,4-trimethylimidazolidin-2-one] are 49 nM and 49%.
Take `O=C1CC2(CCCC2)CN1c1ncc(C#Cc2ccccc2)cn1` [Example 117, 2-(5-Phenylethynyl-pyrimidin-2-yl)-2-aza-spiro[4.4]nonan-3-one]: the EC50 turned out to be 44 nM and the Emax was 84%.
As for `CC1(C)CC(=O)N(c2ncc(C#Cc3cc(F)ccc3F)cn2)C1` [Example 121, 1-[5-(2,5-Difluoro-phenylethynyl)-pyrimidin-2-yl]-4,4-dimethyl-pyrrolidin-2-one], the EC50 was 41 nM and the Emax was 70%.
Regarding `CC1N(c2ccc(C#Cc3ccccc3)cn2)C(=O)OC1(C)C` (racemic) [Example 27, (RS)-4,5,5-Trimethyl-3-(5-phenylethynyl-pyridin-2-yl)-oxazolidin-2-one], the EC50 worked out at 15 nM and the Emax is 61%.
On the same counts, the results for `CN1C(=O)N(c2ccc(C#Cc3ccccc3)cn2)CC12CC2` [Example 96, 4-Methyl-6-(5-phenylethynyl-pyridin-2-yl)-4,6-diaza-spiro[2.4]heptan-5-one] are 35 nM and 98%.
On the same counts, the results for `CC1(C)CCN(c2ncc(C#Cc3cc(F)ccc3F)cn2)C(=O)C1` [Example 136, 1-[5-(2,5-Difluoro-phenylethynyl)-pyrimidin-2-yl]-4,4-dimethyl-piperidin-2-one] are 31 nM and 49%.
As to `CC1(C)CC(=O)N(c2ncc(C#Cc3cccc(F)c3)cn2)C1` [Example 118, 1-[5-(3-Fluoro-phenylethynyl)-pyrimidin-2-yl]-4,4-dimethyl-pyrrolidin-2-one], the EC50 came to 13 nM and the Emax is 78%.
With `CC1(C)CCN(c2ccc(C#Cc3cccc(F)c3)cn2)C(=O)C1` [Example 88, 5′-(3-Fluoro-phenylethynyl)-4,4-dimethyl-3,4,5,6-tetrahydro-[1,2′]bipyridinyl-2-one], the EC50 was found to be 19 nM and the Emax came out at 110%.
On to `CC1(C)CCN(c2ccc(C#Cc3cncc(Cl)c3)cn2)C(=O)O1` [Example 75, 3-[5-(5-Chloro-pyridin-3-ylethynyl)-pyridin-2-yl]-6,6-dimethyl-[1,3]oxazinan-2-one], for which the EC50 worked out at 27 nM and the Emax was determined as 87%.
In the case of `CC1(C)CCN(c2cnc(C#Cc3ccccc3)cn2)C(=O)O1` [Example 168, 6,6-Dimethyl-3-(5-(phenylethynyl)pyrazin-2-yl)-1,3-oxazinan-2-one], the EC50 is 15 nM and the Emax was 41%.
Consider `CN1C(=O)N(c2ncc(C#Cc3ccccc3)cn2)CCC1(C)C` [Example 137, 3,4,4-Trimethyl-5′-phenylethynyl-3,4,5,6-tetrahydro-[1,2′]bipyrimidinyl-2-one], for which the EC50 is 66 nM and the Emax amounted to 74%.
`CC1(C)CN(c2ccc(C#Cc3ccccc3)cn2)C1=O` [Example 97, 3,3-Dimethyl-1-(5-phenylethynyl-pyridin-2-yl)-azetidin-2-one]: the EC50 is 36 nM and the Emax is 71%.
As to `CC1(C)CCN(c2ccc(C#Cc3ccccc3)nn2)C(=O)C1` [Example 151, 4,4-Dimethyl-1-(6-(phenylethynyl)pyridazin-3-yl)piperidin-2-one], the EC50 was 19 nM and the Emax worked out at 130%.
With `CC1(C)CCN(c2ccc(C#Cc3cc(F)ccc3F)cn2)C(=O)C1` [Example 92, 5′-(2,5-Difluoro-phenylethynyl)-4,4-dimethyl-3,4,5,6-tetrahydro-[1,2′]bipyridinyl-2-one], the concentration giving a half-maximal response (EC50) was determined as 32 nM and the Emax stood at 84%.
As for `CCN1C(=O)N(c2ccc(C#Cc3cccnc3)cn2)C2CCCCC21` (stereo not drawn) [Example 100, (3aSR,7aRS)-(3aRS,7RS)-1-Ethyl-3-(5-pyridin-3-ylethynyl-pyridin-2-yl)-octahydro-benzoimidazol-2-one], the Emax was 64%.
For `CN1C(=O)N(c2ncc(C#Cc3cc(F)ccc3F)cn2)CC1(C)C` [Example 124, 1-[5-(2,5-Difluoro-phenylethynyl)-pyrimidin-2-yl]-3,4,4-trimethyl-imidazolidin-2-one], the EC50 came out at 7 nM and the Emax stood at 43%.
For `COC[C@H]1CN(c2ccc(C#Cc3ccccc3)cn2)C(=O)O1` (single isomer, unassigned) [Example 3, (5R or 5S)-5-Methoxymethyl-3-(5-phenylethynyl-pyridin-2-yl)-oxazolidin-2-one], the EC50 is 18 nM and the Emax was found to be 46%.
For `O=C1N(c2ccc(C#Cc3ccccc3)cn2)CC2CCCCN12` (racemic) [Example 58, (RS)-2-(5-Phenylethynyl-pyridin-2-yl)-hexahydro-imidazo[1,5-a]pyridin-3-one], the EC50 stood at 33 nM and the Emax was 43%.
On the same counts, the results for `CC1(C)CNC(=O)N(c2ccc(C#Cc3ccccc3)cn2)C1` [Example 25, 5,5-Dimethyl-1-(5-phenylethynyl-pyridin-2-yl)-tetrahydro-pyrimidin-2-one] are 69 nM and 148%.
On to `CC(C)N1C(=O)N(c2ccc(C#Cc3ccccc3)cn2)C2CCCCC21` (stereo not drawn) [Example 101, (3aSR,7aRS)-(3aRS,7RS)-1-Isopropyl-3-(5-phenylethynyl-pyridin-2-yl)-octahydro-benzoimidazol-2-one], for which the EC50 amounted to 39 nM and the Emax was 77%.
On to `COC1C(=O)N(c2ccc(C#Cc3cncc(Cl)c3)cn2)CC1(C)C` (racemic) [Example 63, (RS)-1-[5-(5-Chloro-pyridin-3-ylethynyl)-pyridin-2-yl]-3-methoxy-4,4-dimethyl-pyrrolidin-2-one], for which the EC50 worked out at 70 nM and the Emax is 99%.
`Cc1cc(C#Cc2cccc(F)c2)cnc1N1CC(C)(C)N(C)C1=O` [Example 108, 1-[5-(3-Fluoro-phenylethynyl)-3-methyl-pyridin-2-yl]-3,4,4-trimethyl-imidazolidin-2-one]: the EC50 stood at 102 nM and the Emax came to 115%.
Take `CC1(C)CN(c2ccc(C#Cc3ccccc3)cn2)C(=O)C1O` (racemic) [Example 14, (3RS)-3-Hydroxy-4,4-dimethyl-1-(5-phenylethynyl-pyridin-2-yl)-pyrrolidin-2-one]: the EC50 turned out to be 388 nM and the Emax stood at 114%.
On the same counts, the results for `CN1C(=O)N(c2ccc(C#Cc3cc(F)ccc3F)cn2)CCC1(C)C` [Example 68, 1-[5-(2,5-Difluoro-phenylethynyl)-pyridin-2-yl]-3,4,4-trimethyl-tetrahydro-pyrimidin-2-one] are 41 nM and 79%.
For `CC1CN(c2ccc(C#Cc3ccccc3)cn2)C(=O)OC1(C)C` (racemic) [Example 104, (RS)-5,6,6-Trimethyl-3-(5-phenylethynyl-pyridin-2-yl)-[1,3]oxazinan-2-one], the EC50 was 42 nM and the Emax stood at 109%.
Consider `CO[C@@H]1C(=O)N(c2ccc(C#Cc3ccccc3)cn2)CC1(C)C` (single isomer, unassigned) [Example 61], for which the EC50 is 75 nM and the Emax came out at 70%.
Regarding `CC1(C)CN(c2ccc(C#Cc3cccc(F)c3)cn2)C(=O)O1` [Example 6, 3-[5-(3-Fluoro-phenylethynyl)-pyridin-2-yl]-5,5-dimethyl-oxazolidin-2-one], the EC50 turned out to be 9 nM and the Emax came to 46%.
On the same counts, the results for `CC1(C)CCC(=O)N(c2ccc(C#Cc3cccc(F)c3)cn2)C1` [Example 43, 5′-(3-Fluoro-phenylethynyl)-5,5-dimethyl-3,4,5,6-tetrahydro-[1,2′]bipyridinyl-2-one] are 12 nM and 100%.
On the same counts, the results for `CN1C(=O)N(c2ccc(C#Cc3ccc(F)cc3)cn2)CC1(C)C` [Example 57, 1-[5-(4-Fluoro-phenylethynyl)-pyridin-2-yl]-3,4,4-trimethyl-imidazolidin-2-one] are 35 nM and 78%.
